Results on one molecule are retold here after US20150147403A1, “DERMATOLOGICAL COMPOSITION COMPRISING OLEOSOMES AND RETINOIDS, PROCESS FOR PREPARING THE SAME AND USE THEREOF” (GALDERMA RESEARCH & DEVELOPMENT, priority 2012, published 2015).

Holding throughout (format): physicochemical
Data set [1] can be described thus: Solubility of compound A in various oily and aqueous solvents. The source says: (§1) The object of this preformulation study is to identify lipophilic and hydrophilic solvents in which compound A is soluble, and in which it is chemically stable.
Data set [2] can be described thus: Stability of compound A in solvents (HPLC-UV). The settings on record: RT / 40° C. As for the experimental part: as §1
The stability of the active agent was evaluated by liquid chromatography coupled to a UV detector (HPLC-UV).

Data set [3] is described as follows: Stability study on compositions 1′ and 2: assay of compound A by HPLC. The following applies: under all the temperature conditions (4° C., RT, 40° C.); dissolved in the aqueous phase or in the oily liquid globules. As for the experimental part:
Composition 1′ of Example 2 and composition 2 of Example 3 were placed under various stability conditions: 4° C., room temperature and 40° C., for 3 months.
Compound A was assayed by HPLC. The results are expressed in mg/g.

Setting [4] is: in Caprylic/capric acid triglycerides (Miglyol 812N).
[5] abbreviates: in PPG-15 stearyl ether (Arlamol E PSE15).
Setting [6] is: in Propylene glycol / absolute ethanol (20/80).

Each structure is given as a SMILES string.

With `CC(C)(C)c1cc(-c2cc(-c3ccc(C(=O)O)cc3)ccc2OCCO)ccc1N1CCCC1` [Compound A, 3″-tert-Butyl-4′-(2-hydroxyethoxy)-4″-pyrrolidin-1-yl-[1,1′;3′,1″]-terphenyl-4-carboxylic acid], the “Maximum solubility (% m/m)” value in data set [1] (in Absolute ethanol) is listed as 0.92 % m/m; in data set [1] (setting [4]), 0.019 % m/m; in data set [1] (setting [5]), 0.292 % m/m; in data set [1] (in Phenoxyethanol), 1.957 % m/m; in data set [1] (in Propylene glycol), 0.11 % m/m; in data set [1] (setting [6]), 1.08 % m/m. Further, the Stability in data set [2] (in Absolute ethanol) is 3 months RT / 40 °C; in data set [2] (setting [4]), 6 months RT / 40 °C; in data set [2] (setting [5]), 6 months RT / 40 °C; in data set [2] (in Phenoxyethanol), 6 months RT / 40 °C; in data set [2] (setting [6]) it was 6 months RT / 40 °C; in data set [2] (in Propylene glycol) it was 3 months RT / 40 °C. Moreover, the “Chemical stability of compound A in the compositions” value in data set [3] is listed as 3 months.
